Test results: ChEMBL document CHEMBL3608219, “New geranylated flavanones from the fruits of Paulownia catalpifolia Gong Tong with their anti-proliferative activity on lung cancer cells A549” (Bioorg Med Chem Lett, 2015)

Assays:
A549 [1] = assay: Cell cycle arrest in human A549 cells assessed as accumulation at G2/M phase at 10 uM after 24 hrs by flow cytometry analysis (reference value: 14.18 +/- 1.03%); format: functional
A549 [2] = assay: Cell cycle arrest in human A549 cells assessed as accumulation at G1 phase at 10 uM after 24 hrs by flow cytometry analysis (reference value: 68.78 +/- 2.43%); format: functional
A549 [3] = assay: Antiproliferative activity against human A549 cells by MTT assay; format: functional, cell-based
A549 [4] = assay: Cell cycle arrest in human A549 cells assessed as accumulation at S phase at 10 uM after 24 hrs by flow cytometry analysis (reference value: 16.23 +/- 1.73%); format: functional

IC50 (A549 [3]) [µM]	Structure (SMILES)	Activity (A549 [1]) [%]	Activity (A549 [2]) [%]	Activity (A549 [4]) [%]
8.9	CC(C)=CCC/C(C)=C\Cc1c(O)c(-c2c(O)c(C/C=C(/C)CCC=C(C)C)c3c(c2O)C(=O)CC(c2ccc(O)c(O)c2)O3)c(O)c2c1OC(c1ccc(O)c(O)c1)CC2=O (configuration not stated)	5.05	88.88	5.05
23.7	COc1cc(C2CC(=O)c3c(O)cc(O)c(C/C=C(\C)CCCC(C)(C)O)c3O2)cc(O)c1O (configuration not stated)	–	–	–
22.1	COc1cc(C2CC(=O)c3c(cc(O)c(C/C=C(\C)CCCC(C)(C)O)c3O)O2)cc(O)c1O (configuration not stated)	–	–	–
18.7	C=C1C(=O)[C@]23[C@H](O)[C@H]1CC[C@H]2[C@@]12CO[C@]3(O)[C@@H](O)[C@@H]1C(C)(C)CC[C@@H]2O [ORIDONIN]	–	–	–
